Laboratory results from patent publication US8629143B2, “Potassium channel modulators” (AbbVie Inc., priority 2009, dated 2014).

Molecular target: T1, KCNQ 2/3 channels (HEK293 cells stably expressing human KCNQ2 and KCNQ3 subunits) (Homo sapiens, UniProt O43525+O43526)
T1 construct: expressed in transfected cells; host or cells: HEK293
Experiment: KCNQ2/3 channel activation, thallium flux FLIPR assay with BTC-AM dye
Assay type: cell-based
Settings: for Emax: HEK293, read-out: Max. %; for EC50: HEK293 cells expressing human KCNQ2 and KCNQ3, thallium flux, FLIPR
Protocol: The following example describes the assay that can be used to identify compounds that activate KCNQ 2/3 channels.
HEK293 cells stably expressing human KCNQ2 and KCNQ3 subunits were seeded in 96-well, black-walled, clear-bottomed, poly-D-lysine coated plates (BD Biosciences, Bedford, Mass.) at a density of 1×10^5 cells per well 24 hours before the assay. On the assay day, BTC-AM dye (Invitrogen, Carlsbad, Calif.) was loaded into the cells by replacing the cell culture medium with 55 μL/well of 3 μg/mL dye in DPBS. Dye loading was allowed to proceed for 2 hours at room temperature and then cells were washed twice with 50 μL/well of assay buffer (in mM: 10 HEPES pH 7.3, 5 glucose, 140 Na-gluconate, 2.5 K-gluconate, 3.6 Ca-gluconate, 2 MgSO4, 0.1 Ouabain) to remove unloaded dye. Cells were incubated in 50 μL of assay buffer before loading onto a FLIPR system (Molecular Devices, Sunnyvale, Calif.). Various concentrations of compounds to be assayed were added to the cells in 50 μL of assay buffer and incubated for 4 minutes. The fluorescence signal was initiated by adding 100 μL of assay buffer containing 6 mM TlNO3 and 10 mM K2SO4. Fluors were excited using the 488-nm line of an argon laser and emission was filtered using a 540±30 nm bandpass filter. Fluorescent signals were recorded for 3 minutes. Sums of the responses over basal responses were plotted versus concentrations of test compounds to obtain an EC50 value. The maximum response for each test compound was determined relative to the response produced by 10 μM retigabine. The maximum response of retigabine at 10 μM was set at 100%.

[1] = maximum response relative to the response produced by 10 μM retigabine (set at 100%)

| Structure (SMILES) | Emax [1] | EC50 | Max. % [1] |
| --- | --- | --- | --- |
| COc1ccc(-c2nn(NC(=O)Cc3cc(F)cc(F)c3)c(=O)c3ccccc23)cc1 [Example 153, 2-(3,5-difluorophenyl)-N-[4-(4-methoxyphenyl)-1-oxophthalazin-2(1H)-yl]acetamide] | 143% | 500 to 1000 nM |  |
| Cc1nn(NC(=O)Cc2ccc(Cl)cc2)c(=O)c2ccccc12 [Example 28, 2-(4-chlorophenyl)-N-(4-methyl-1-oxophthalazin-2(1H)-yl)acetamide] | 121% | 1000 to 10000 nM |  |
| CC(C)c1nn(NC(=O)CC23CC4CC(CC(C4)C2)C3)c(=O)c2c1C1CCC2CC1 [Example 8, 2-(1-adamantyl)-N-(4-isopropyl-1-oxo-5,6,7,8-tetrahydro-5,8-ethanophthalazin-2(1H)-yl)acetamide] | 79% | 1000 to 10000 nM |  |
| CC(C)(C)c1nn(NC(=O)CC(C)(C)c2ccccc2)c(=O)c2ccccc12 [Example 64, N-(4-tert-butyl-1-oxophthalazin-2(1H)-yl)-3-methyl-3-phenylbutanamide] | 157% | < 100 nM |  |
| O=C(Cc1cc(F)cc(F)c1)Nn1nc(-c2ccc(Cl)cc2)c2c(F)ccc(F)c2c1=O [Example 181, N-[4-(4-chlorophenyl)-5,8-difluoro-1-oxophthalazin-2(1H)-yl]-2-(3,5-difluorophenyl)acetamide] | 166% | 100 to 500 nM |  |
| O=C(CCC(F)(F)F)Nn1nc(-c2ccc(Cl)cc2)c2ccccc2c1=O [Example 123, N-[4-(4-chlorophenyl)-1-oxophthalazin-2(1H)-yl]-4,4,4-trifluorobutanamide] | 48% | 500 to 1000 nM |  |
| O=C(CC12CC3CC(CC(C3)C1)C2)Nn1nc(-c2ccccc2)c2cc(F)ccc2c1=O [Example 37, 2-(1-adamantyl)-N-(6-fluoro-1-oxo-4-phenylphthalazin-2(1H)-yl)acetamide] | 179% | < 100 nM |  |
| O=C(Cc1ccc(Br)cc1)Nn1nc(-c2ccc(Cl)cc2)c2ccccc2c1=O [Example 102, 2-(4-bromophenyl)-N-[4-(4-chlorophenyl)-1-oxophthalazin-2(1H)-yl]acetamide] | 112% | 500 to 1000 nM |  |
| O=C(Nn1nc(-c2ccc(Cl)cc2)c2ccccc2c1=O)[C@@H]1C[C@H]1c1ccccc1 (relative stereo) [Example 120, trans-N-[4-(4-chlorophenyl)-1-oxophthalazin-2(1H)-yl]-2-phenylcyclopropanecarboxamide] | 103% | 500 to 1000 nM |  |
| COc1ccc(-c2nn(NC(=O)Cc3cc(F)cc(F)c3)c(=O)c3ccc(Br)cc23)cc1 [Example 176, N-[6-bromo-4-(4-methoxyphenyl)-1-oxophthalazin-2(1H)-yl]-2-(3,5-difluorophenyl)acetamide] | 33% | 100 to 500 nM |  |
| O=C(Cc1ccc(Cl)cc1)Nn1nc(Cc2ccc(Cl)cc2)c2ccccc2c1=O [Example 145, N-[4-(4-chlorobenzyl)-1-oxophthalazin-2(1H)-yl]-2-(4-chlorophenyl)acetamide] | 101% | 100 to 500 nM |  |
| CC(C)(CC(=O)Nn1nc(C(F)(F)F)c2ccccc2c1=O)c1ccc(Cl)cc1 [Example 42, 3-(4-chlorophenyl)-3-methyl-N-[1-oxo-4-(trifluoromethyl)phthalazin-2(1H)-yl]butanamide] | 103% | 100 to 500 nM |  |
| O=C(CC12CC3CC(CC(F)(C3)C1)C2)Nn1nc(-c2ccccc2)c2ccsc2c1=O [Example 179, 2-(3-fluoroadamantan-1-yl)-N-(7-oxo-4-phenylthieno[2,3-d]pyridazin-6(7H)-yl)acetamide] | 169% | 500 to 1000 nM |  |
| O=C(CC12CC3CC(CC(C3)C1)C2)Nn1nc(-c2ccc(Cl)cc2)c2c(F)ccc(F)c2c1=O [Example 183, 2-(adamantan-1-yl)-N-[4-(4-chlorophenyl)-5,8-difluoro-1-oxophthalazin-2(1H)-yl]acetamide] | 178% | 100 to 500 nM |  |
| O=C(Cc1ccc(Cl)cc1)Nn1nc(-c2ccccc2)c2ccccc2c1=O [Example 4, 2-(4-chlorophenyl)-N-(1-oxo-4-phenylphthalazin-2(1H)-yl)acetamide] | 157% | 100 to 500 nM |  |
| O=C(Cc1ccc(Cl)cc1)Nn1nc(Cc2ccccc2)c2ccccc2c1=O [Example 142, N-(4-benzyl-1-oxophthalazin-2(1H)-yl)-2-(4-chlorophenyl)acetamide] | 109% | < 100 nM |  |
| O=C(Cc1ccsc1)Nn1nc(C(F)(F)F)c2ccccc2c1=O [Example 53, N-[1-oxo-4-(trifluoromethyl)phthalazin-2(1H)-yl]-2-(3-thienyl)acetamide] | 61% | 1000 to 10000 nM |  |
| O=C(Cc1cc(F)cc(F)c1)Nn1nc(-c2ccc(F)cc2)c2ccccc2c1=O [Example 133, 2-(3,5-difluorophenyl)-N-[4-(4-fluorophenyl)-1-oxophthalazin-2(1H)-yl]acetamide] | 144% | 100 to 500 nM |  |
| O=C(Cc1ccc(Cl)cc1)Nn1nc(Cl)c2ccccc2c1=O [Example 21, N-(4-chloro-1-oxophthalazin-2(1H)-yl)-2-(4-chlorophenyl)acetamide] | 82% | 1000 to 10000 nM |  |

Results, then the compound that gave them:

| Emax [1] | EC50 | Max. % [1] | Structure (SMILES) |
| --- | --- | --- | --- |
| 123% | 100 to 500 nM |  | O=C(CC12CC3CC(CC(C3)C1)C2)Nn1nc(Cl)c2ccccc2c1=O [Example 20, 2-(1-adamantyl)-N-(4-chloro-1-oxophthalazin-2(1H)-yl)acetamide] |
|  | < 100 nM | 165% | Cc1ccc(C)c(-c2nn(NC(=O)CC3CC4CCC3C4)c(=O)c3ccccc23)c1 (racemic) [Example 155, (±)-2-(exo-bicyclo[2.2.1]hept-2-yl)-N-[4-(2,5-dimethylphenyl)-1-oxophthalazin-2(1H)-yl]acetamide] |
| 157% | 100 to 500 nM |  | O=C(Cc1ccc(Cl)cc1)Nn1nc(C2CCCCC2)c2ccccc2c1=O [Example 76, 2-(4-chlorophenyl)-N-(4-cyclohexyl-1-oxophthalazin-2(1H)-yl)acetamide] |
| 129% | < 100 nM |  | Cc1ccc(-c2nn(NC(=O)CC34CC5CC(CC(C5)C3)C4)c(=O)c3ccccc23)cc1 [Example 138, 2-(adamantan-1-yl)-N-[4-(4-methylphenyl)-1-oxophthalazin-2(1H)-yl]acetamide] |
| 162% | < 100 nM |  | O=C(CC1CC2CCC1C2)Nn1nc(C2CCCC2)c2ccccc2c1=O (racemic) [Example 71, (±)-2-(exo-bicyclo[2.2.1]heptan-2-yl)-N-(4-cyclopentyl-1-oxophthalazin-2(1H)-yl)acetamide] |
| 243% | < 100 nM |  | O=C(CC12CC3CC(CC(C3)C1)C2)Nn1nc(C2CCCCC2)c2ccccc2c1=O [Example 75, 2-(adamantan-1-yl)-N-(4-cyclohexyl-1-oxophthalazin-2(1H)-yl)acetamide] |
| 94% | 1000 to 10000 nM |  | CC1(C)[C@H]2CC[C@@H](CC(=O)Nn3nc(-c4ccccc4)c4ccsc4c3=O)[C@@H]1C2 [Example 30, 2-[(1S,2S,5S)-6,6-dimethylbicyclo[3.1.1]hept-2-yl]-N-(7-oxo-4-phenylthieno[2,3-d]pyridazin-6(7H)-yl)acetamide] |
| 95% | 100 to 500 nM |  | Cc1ccc(-c2nn(NC(=O)C[C@@H]3CC[C@H]4C[C@@H]3C4(C)C)c(=O)c3ccccc23)cc1 [Example 137, 2-[(1S,2S,5S)-6,6-dimethylbicyclo[3.1.1]hept-2-yl]-N-[4-(4-methylphenyl)-1-oxophthalazin-2(1H)-yl]acetamide] |
| 154% | < 100 nM |  | O=C(CC1CC2CCC1C2)Nn1nc(-c2ccc(Cl)cc2)c2ccccc2c1=O (racemic) [Example 113, (±)-2-(exo-bicyclo[2.2.1]hept-2-yl)-N-[4-(4-chlorophenyl)-1-oxophthalazin-2(1H)-yl]acetamide] |
| 148% | < 100 nM |  | O=C(C[C@@H]1C[C@@H]2CC[C@H]1C2)Nn1nc(C2CCC2)c2ccccc2c1=O [Example 66, 2-[(1S,2S,4R)-bicyclo[2.2.1]hept-2-yl]-N-(4-cyclobutyl-1-oxophthalazin-2(1H)-yl)acetamide] |
| 156% | 500 to 1000 nM |  | O=C(Cc1cc(F)cc(F)c1)Nn1nc(C2CC2)c2ccccc2c1=O [Example 23, N-(4-cyclopropyl-1-oxophthalazin-2(1H)-yl)-2-(3,5-difluorophenyl)acetamide] |
| 169% | 100 to 500 nM |  | O=C(CC12CC3CC(CC(C3)C1)C2)Nn1nc(C(F)(F)F)c2ccccc2c1=O [Example 12, 2-(1-adamantyl)-N-[1-oxo-4-(trifluoromethyl)phthalazin-2(1H)-yl]acetamide] |
| 155% | < 100 nM |  | Cc1ccc(-c2nn(NC(=O)CC34CC5CC(CC(C5)C3)C4)c(=O)c3ccccc23)cc1C [Example 164, 2-(adamantan-1-yl)-N-[4-(3,4-dimethylphenyl)-1-oxophthalazin-2(1H)-yl]acetamide] |
